6 compounds from patent publication US9790135B2, “Use of acylated carbonic esters of glycerol in agriculture” (AGRONUTRITION, priority 2013, dated 2017) can be followed below.

Data set [1] in a line: Stability of the concentrated colloidal suspension towards sedimentation. Type of data set: physicochemical. Particulars: concentrated colloidal suspension of MnCO3 (and MnSO4) in glycerol/water with the adjuvant. Here is the method: The concentrated colloidal suspension is stable towards sedimentation over time—in particular over a period of 12 months—and is capable of being stored at a temperature of from −50° C. to +50° C. without any alteration of its rheological properties or of the stimulating and/or nutritive properties of the nutritive composition obtained by dilution of the concentrated colloidal suspension. Such a concentrated colloidal suspension can therefore be proposed for sale, marketed and distributed while retaining the stimulating and/or nutritive properties of the nutritive composition.
Cyclic glycerol carbonate (CG) of formula (VI), glycerol, water and manganese carbonate (MnCO3) in the form of a solid in the divided state, the solid particles of which have a mean size of approximately 2 μm, are mixed.

The subject of the next data set is soya. Put plainly: Foliar manganese content of soya after foliar application of nutritive MnCO3 compositions. Particulars: soya crop, 500 g manganese carbonate per hectare.
Data set [2] concerns winter common wheat (variety Quality, ARVALIS). The experiment in a line: Manganese content retained in leaves of treated winter common wheat. Type of data set: in vivo. Here is the method: A powder of manganese carbonate (MnCO3, CAS 598-62-9) having a mean particle size of substantially approximately 2 μm is prepared by grinding. A concentrated colloidal suspension comprising 58.7% of this powder in a liquid composition comprising 1.5% glycerol carbonate acetate (ECG-C2, as described in Example 3 and in Table 1), […], 7.5% water and 1% jojoba oil, the indicated percentages being percentages by mass. The concentrated colloidal suspension is diluted in water to form a treatment composition (Mn385) according to the invention which is suitable for applying, by spraying on the cultivated surface area, a quantity of manganese carbonate of 385 g per hectare of cultivated surface area.
There are also prepared: • a concentrated colloidal suspension as described in Example 4, and this concentrated colloidal suspension is diluted in water to form a nutritive composition (Mn457) according to the invention which is suitable for applying, by spraying, a quantity of manganese carbonate of 457 g per hectare of surface area; and • a concentrated colloidal suspension as described in Example 7, and this concentrated colloidal suspension is diluted in water to form a nutritive composition (Mn509) according to the invention which is suitable for applying, by spraying, a quantity of manganese carbonate of 509 g per hectare of cultivated surface area.
The nutritive compositions Mn385, Mn457 and Mn509 according to the invention are applied by spraying to plots of 4 parcels having a surface area of 16 m^2 cultivated with winter common wheat (variety “Quality”, ARVALIS).
There are also prepared in parallel: • on a plot of 4 16 m^2 parcels, a crop of winter common wheat treated by spraying with water, as negative control; and • on a plot of 4 16 m^2 parcels, a crop of winter common wheat treated with MnCO3 on its own (without adjuvant according to the invention) at a rate of 500 g per hectare, as control treatment; and • on a plot of 4 16 m^2 parcels, a crop of winter common wheat treated, by way of comparison, with a formulation of MANTRAC 500 at a rate of 500 g of MnCO3 per hectare.
The manganese content retained in the leaves of treated common wheat is measured one day (D+1), seven days (D+7), 14 days (D+14) and 21 days (D+21) after application. To that end, the leaves are removed and washed three times with water to remove the manganese carbonate that has not been absorbed by the plant, and the manganese absorbed into the leaves is then assayed. The results are given in Table 2 below and are expressed in ppm (μg of manganese per gram of leaf).
The kinetics of daily MnCO3 assimilation in the leaves are measured.

Turning to `CC(=O)OCC1COC(=O)O1` (stereo not drawn) [ECG-C2, cyclic α/α′-acetylated glycerol carbonic ester], in data set [1], the “stability of the concentrated colloidal suspension (settling of particles)” value (shortened to “stability”) is “stable over time”.

As to `CCCCCCC(=O)OCC1COC(=O)O1` (stereo not drawn) [ECG-C7, cyclic α/α′-heptanoylated glycerol carbonic ester], in data set [1], the “stability” value is reported as “stable over time”.

On to `CCCCCCCCC(=O)OCC1COC(=O)O1` (stereo not drawn) [ECG-C9, cyclic α/α′-nonanoylated glycerol carbonic ester], for which, in data set [1], the “stability” value was “stable over time”.

Turning to `C=CCCCCCCCCC(=O)OCC1COC(=O)O1` (stereo not drawn) [ECG-C11:1, cyclic α/α′-undecylenoylated glycerol carbonic ester], the “stability” value in data set [1] is “stable over time”.

As to `CCCCCCCC/C=C\CCCCCCCC(=O)OCC1COC(=O)O1` (stereo not drawn) [ECG-C18:1, cyclic α/α′-oleylated glycerol carbonic ester], the “foliar manganese content reached (maximum) up to four days after application” value with soya is listed as “greater than 250 ppm”. Besides, the “stability” value in data set [1] was “stable over time”.

With manganese carbonate [MnCO3 on its own], the “results relative to the negative control (water) (in words)” value in data set [2] (500 g per hectare, without adjuvant) was “do not differ from the results obtained with the negative control”. For the same compound, in data set [2] (14 days after application), the “manganese content retained in the leaves, D + 14” value is given as 112.50 +/− 45.35 ppm (μg of manganese per gram of leaf). The “manganese content retained in the leaves, D + 21” value in data set [2] (21 days after application) is reported as 95.43 +/− 5.95 ppm (μg of manganese per gram of leaf). Moreover, the “manganese content retained in the leaves, D + 1” value in data set [2] (one day after application, leaves washed three times with water) was 84.83 +/− 28.01 ppm (μg of manganese per gram of leaf). In data set [2] (seven days after application), the “manganese content retained in the leaves, D + 7” value is listed as 74.83 +/− 19.14 ppm (μg of manganese per gram of leaf).
